Reference: article PMC6332220, “Synthesis, Characterization and Biological Evaluation of Some Quinoxaline Derivatives: A Promising and Potent New Class of Antitumor and Antimicrobial Agents” (Molecules, 2015)
≈ marks a conversion by molar mass, not a printed value.

What was measured:
[1] = test system: NCI-H460 (non-small cell lung cancer); test: In vitro cytotoxicity, SRB cell growth assay, NCI-H460
Description: (§1) The in vitro cytotoxic activity of the newly synthesized compounds against human breast cell line (MCF7), non-small cell lung cancer NCIH460, CNS cancer SF-268 and WI 38 (normal fibroblast cells) were evaluated using doxorubicin as the reference drug according to the method reported by Skehan et al..
(§2) The newly synthesized compounds were evaluated in vitro against three human cancer cell lines; which are MCF-7 (breast adenocarcinoma), NCI-H460 (non-small cell lung cancer) and SF-268 (CNS cancer), and WI 38 (normal fibroblast cells) were used in this study. MCF-7 was obtained from the European Collection of Cell Cultures (ECACC, Salisbury, UK) but NCI-H460, SF-268 and WI 38 were kindly provided by the National Cancer Institute (NCI, Cairo, Egypt). They grow as monolayer and routinely maintained RPMI-1640 medium supplemented with 5% heat inactivated fetal bovine serum (FBS), 2 mM glutamine and antibiotics (penicillin 100 U/mL, streptomycin 100 µg/mL), at 37 °C in a humidified atmosphere containing 5% CO2. Exponentially growing cells were obtained by plating 1.5 × 10^5 cells/mL for MCF-7 and SF-268, and 0.75 × 10^4 cells/mL for NCI-H460 followed by 24 h of incubation. The effect of the vehicle solvent (DMSO) on the growth of these cell lines was evaluated in all experiments by exposing untreated control cells to the maximum concentration (0.5%) of DMSO used in each assay.
(§3) The effect of compounds on the in vitro growth of human tumor cell lines were evaluated according to the procedure adopted by the National Cancer Institute ([…]) in the “In vitro Anticancer Drug Discovery Screen” that uses the protein-binding dye sulforhodamine B (SRB) to assess cell growth. In the assay protocol, all cells were incubated at 37 °C under humidified atmosphere containing 5% CO2. Briefly, exponentially cells growing in 96-well plates were then exposed for 48 h to five serial concentrations of each compound, starting from a maximum concentration of 150 μg/mL. Following this exposure period adherent cells were fixed, washed and stained. The bound stain was solubilized and the absorbance was measured at 492 nm in a plate reader (Bio-Tek Instruments Inc., Power wave XS, Winston, NC, USA). For each test compound and cell line, a dose response curve was obtained and the inhibitory concentration of 50% (IC50), corresponding to the concentration of the compounds that inhibited 50% of the net cell growth was calculated as described elsewhere. Doxorubicin was used as a positive control and tested in the same manner.

[2] = test system: Candida albicans; test: Disk diffusion, Candida albicans; type: cell-based; settings: Fungi, 8.0 mm disks, 10 μL
Description: (§4) The disk diffusion method was used for determination of the antimicrobial activity using ampicillin, gentamicin and amphotericin B as reference drugs. The results were recorded for each compounds as the average diameter as inhibition zones (IZ) of bacterial or fungal growth around the discs in mm as shown in Table 2.
(§5) Antimicrobial activities were carried out against highly pathogenic strains; three strains of Gram positive bacteria (Bacillus subtilis, Staphylococcus aureus and Streptococcus faecalis), four strains of Gram negative bacteria (Escherichia coli, Neisseria gonorrhoeae, Pseudomonas aeruginosa and Salmonella typhimurium) and three fungi strains (Aspergillus flavus, Aspergillus fumigatus and Candida albicans) isolated from primary agar plates. Antimicrobial activity of the tested samples was determined using a modified Kriby-Bauer disk diffusion method. Briefly, 100 µL of the test bacteria/fungi were grown in 10 mL of fresh media until they reached a count approximately 10^8 cells/mL for bacteria or 10^5 cells/mL for fungi. 100 µL of microbial suspension was spread onto agar plates corresponding to the broth in which they were maintained. The inoculated plates of bacterial strains were incubated at 35–37 °C for 24–48 h, while the inoculated plates of fungal strains such as A. flavus and A. fumigatus were incubated at 25 °C for 48 h and yeast as C. albicans was incubated at 30 °C for 24–48 h.
(§6) The agar disk diffusion (qualitative) method was used in this investigation for determination of the preliminary antibacterial and antifungal activities. The agar used was Mueller-Hinton agar plates that are rigorously tested for composition and pH. Further the depth of the agar in the plate is a factor to be considered in the disk diffusion method.
(§7) Reference drugs: ampicillin was used as a standard antibacterial drug for Gram positive bacteria, gentamicin as a standard antibacterial drug for Gram negative bacteria and amphotericin B as antifungal standard drug.
(§8) Bacterial and fungal strains were spread onto the surface of the agar plates using sterile cotton swabs. For evaluation of antibacterial activities, blank paper disks (Schleicher & Schuell, Alicante, Spain) with a diameter of 8.0 mm were saturated with 10 μL of tested concentration of the stock solutions. Disks were dried and then placed onto inoculated agar plates. The plates of bacterial strains were reincubated at 35–37 °C for 24–48 h, while the plates of fungal strains such as A. flavus and A. fumigatus were reincubated at 25 °C for 48 h and yeast as C. albicans was reincubated at 30 °C for 24–48 h as mentioned above. […] For an accurate analysis, tests were run in triplicate for each strain to avoid any error as described in Table 2.
(§9) Disk diffusion method for filamentous fungi testing by using approved standard method (M02-A11) developed by the CLSI for evaluating the susceptibilities of filamentous fungi to antifungal agents. Disk diffusion method for yeasts developed by using approved standard method (M44-A2) by the CLSI [44]. Agar-based methods such as disk diffusion can be good alternatives because they are simpler and faster than broth-based methods.

[3] = test system: Bacillus subtilis; test: Disk diffusion, Bacillus subtilis; type: cell-based; settings: Gram positive, 8.0 mm disks, 10 μL
Description: as §4, §5, §6, §7, §8

[4] = test system: SF-268 (CNS cancer); test: In vitro cytotoxicity, SRB cell growth assay, SF-268
Description: as §1, §2, §3

[5] = test system: Escherichia coli; test: Disk diffusion, Escherichia coli; type: cell-based; settings: Gram negative, 8.0 mm disks, 10 μL
Description: as §4, §5, §6, §7, §8

[6] = test system: Salmonella typhimurium; test: Disk diffusion, Salmonella typhimurium; type: cell-based; settings: Gram negative, 8.0 mm disks, 10 μL
Description: as §4, §5, §6, §7, §8

[7] = test system: Aspergillus fumigatus; test: Disk diffusion, Aspergillus fumigatus; type: cell-based; settings: Fungi, 8.0 mm disks, 10 μL
Description: as §4, §5, §6, §7, §8, §9

[8] = test system: Pseudomonas aeruginosa; test: Disk diffusion, Pseudomonas aeruginosa; type: cell-based; settings: Gram negative, 8.0 mm disks, 10 μL
Description: as §4, §5, §6, §7, §8

[9] = test system: MCF-7 (breast adenocarcinoma); test: In vitro cytotoxicity, SRB cell growth assay, MCF-7
Description: as §1, §2, §3

[10] = test system: WI 38 (normal fibroblast cells); test: In vitro cytotoxicity, SRB cell growth assay, normal cells WI 38; type: cell-based, human; settings: 48 h exposure, non-cytotoxic = IC50 >100 μg/mL
Description: as §1, §2, §3

[11] = test system: Neisseria gonorrhoeae; test: Disk diffusion, Neisseria gonorrhoeae; type: cell-based; settings: Gram negative, 8.0 mm disks, 10 μL
Description: as §4, §5, §6, §7, §8

[12] = test system: Staphylococcus aureus; test: Disk diffusion, Staphylococcus aureus; type: cell-based; settings: Gram positive, 8.0 mm disks, 10 μL
Description: as §4, §5, §6, §7, §8

[13] = test system: Aspergillus flavus; test: Disk diffusion, Aspergillus flavus; type: cell-based; settings: Fungi, 8.0 mm disks, 10 μL
Description: as §4, §5, §6, §7, §8, §9

[14] = test system: Streptococcus faecalis; test: Disk diffusion, Streptococcus faecalis; type: cell-based; settings: Gram positive, 8.0 mm disks, 10 μL
Description: as §4, §5, §6, §7, §8

[15] = test system: Streptococcus faecalis; test: MIC by broth dilution, Streptococcus faecalis; type: cell-based; settings: Gram positive, 0.98-125 µg/mL
Description: (§10) In this study, MIC (quantitative method) was used for evaluation of the antimicrobial activity of tested compounds. Screening was evaluated in vitro using the Broth dilution method according to CLSI [45]. All the bacteria were incubated and activated at 30 °C for 24 h inoculation into nutrient broth and the fungi were incubated in malt extract broth for 48 h. The compounds were dissolved in DMSO and then diluted using […] Mueller-Hinton broth. […] In each case triplicate tests were performed and the average was taken as the final reading. The tubes were then inoculated with the test organisms, grown in their suitable broth at 37 °C for 24 h for tested microorganisms (1 × 10^8 CFU/mL for bacteria and 1 × 10^6 CFU/mL of fungi), each 5 mL received 0.1 mL of the above inoculum and incubated at 37 °C for 24 h.

[16] = test system: Bacillus subtilis; test: MIC by broth dilution, Bacillus subtilis; type: cell-based; settings: Gram positive, 0.98-125 µg/mL
Description: as §10

[17] = test system: Staphylococcus aureus; test: MIC by broth dilution, Staphylococcus aureus; type: cell-based; settings: Gram positive, 0.98-125 µg/mL
Description: as §10

[18] = test system: Escherichia coli; test: MIC by broth dilution, Escherichia coli; type: cell-based; settings: Gram negative, 0.98-125 µg/mL
Description: as §10

[19] = test system: Salmonella typhimurium; test: MIC by broth dilution, Salmonella typhimurium; type: cell-based; settings: Gram negative, 0.98-125 µg/mL
Description: as §10

[20] = test system: Pseudomonas aeruginosa; test: MIC by broth dilution, Pseudomonas aeruginosa; type: cell-based; settings: Gram negative, 0.98-125 µg/mL
Description: as §10

Compound | Inhibition Zone Diameter (IZ) (mm) Candida albicans [2] | Inhibition Zone Diameter (IZ) (mm) Bacillus subtilis [3] [mm] | Inhibition Zone Diameter (IZ) (mm) Escherichia coli [5] [mm] | Inhibition Zone Diameter (IZ) (mm) Salmonella typhimurium [6] [mm] | Inhibition Zone Diameter (IZ) (mm) Aspergillus fumigatus [7] | Inhibition Zone Diameter (IZ) (mm) Pseudomonas aeruginosa [8] [mm] | IC50 (μg/mL) WI 38 [10] | Inhibition Zone Diameter (IZ) (mm) Neisseria gonorrhoeae [11] | Inhibition Zone Diameter (IZ) (mm) Staphylococcus aureus [12] [mm] | Inhibition Zone Diameter (IZ) (mm) Aspergillus flavus [13] | Inhibition Zone Diameter (IZ) (mm) Streptococcus faecalis [14] [mm] | further results
NNc1nc2cc(Br)ccc2n2nnnc12 [Compound 7, 7-Bromo-4-hydrazinyltetrazolo[1,5-a]quinoxaline] | R (R (IZ = 0 mm)) | 11 | 10 | 9 | R (R (IZ = 0 mm)) | 10 | non-cytotoxic | 10 mm | 10 | R (R (IZ = 0 mm)) | 11 | IC50 ([1]; Homo sapiens, NCI-H460, 48 h, read-out: IC50 (μg/mL) NCI-H460): 12.4 ± 3.01 µg/mL (≈ 44.3 µM); IC50 ([4]; Homo sapiens, SF-268, 48 h, read-out: IC50 (μg/mL) SF-268): 10.6 ± 2.83 µg/mL (≈ 38 µM); melting point: 237 to 239 °C; IC50 ([9]; Homo sapiens, MCF7, 48 h, read-out: IC50 (μg/mL) MCF-7): 26.4 ± 2.1 µg/mL (≈ 94.3 µM)
9-Bromo-di-1,2,4-triazolo[1,5-a:5′,1′-c]quinoxaline [Compound 13] | R (R (IZ = 0 mm)) | 17 | 17 | 17 | R (R (IZ = 0 mm)) | 19 | 18.62 ± 1.21 µg/mL | R (R (IZ = 0 mm)) | 16 | R (R (IZ = 0 mm)) | 20 | Minimum Inhibitory Concentration (MIC) (µg/mL) Streptococcus faecalis [15]: 62.5 µg/mL; IC50 (μg/mL) NCI-H460 ([1]; NCI-H460, SRB, 48 h exposure): 36.05 ± 5.23 µg/mL; Minimum Inhibitory Concentration (MIC) (µg/mL) Bacillus subtilis [16]: 1.95 µg/mL; IC50 (μg/mL) SF-268 ([4]; SF-268, SRB, 48 h exposure): 29.35 ± 7.01 µg/mL; Minimum Inhibitory Concentration (MIC) (µg/mL) Staphylococcus aureus [17]: 7.81 µg/mL; Minimum Inhibitory Concentration (MIC) (µg/mL) Escherichia coli [18]: 7.81 µg/mL; Minimum Inhibitory Concentration (MIC) (µg/mL) Salmonella typhimurium [19]: 3.9 µg/mL; Minimum Inhibitory Concentration (MIC) (µg/mL) Pseudomonas aeruginosa [20]: 125 µg/mL; IC50 (μg/mL) MCF-7 ([9]; MCF-7, SRB, 48 h exposure): 37.64 ± 6.72 µg/mL
NNc1nc2ccc(Br)cc2n2nnnc12 [Compound 10] | – | – | – | – | – | – | – | – | – | – | – | MIC ([15]; Enterococcus faecalis, 24 h, read-out: Minimum Inhibitory Concentration (MIC) (µg/mL) Streptococcus faecalis): 0.98 µg/mL (≈ 3.5 µM); MIC ([16]; Bacillus subtilis, 24 h, read-out: Minimum Inhibitory Concentration (MIC) (µg/mL) Bacillus subtilis): 0.98 µg/mL (≈ 3.5 µM); MIC ([17]; Staphylococcus aureus, 24 h, read-out: Minimum Inhibitory Concentration (MIC) (µg/mL) Staphylococcus aureus): 0.98 µg/mL (≈ 3.5 µM); MIC ([18]; Escherichia coli, 24 h, read-out: Minimum Inhibitory Concentration (MIC) (µg/mL) Escherichia coli): 3.9 µg/mL (≈ 13.9 µM); MIC ([19]; Salmonella enterica, TYPHIMURIUM, 24 h, read-out: Minimum Inhibitory Concentration (MIC) (µg/mL) Salmonella typhimurium): 1.95 µg/mL (≈ 6.96 µM); MIC ([20]; Pseudomonas aeruginosa, 24 h, read-out: Minimum Inhibitory Concentration (MIC) (µg/mL) Pseudomonas aeruginosa): 125 µg/mL (≈ 446 µM)
